Where a SMILES comes first, the peptide text is derived from it. Bridges are numbered along the chain shown (N, C = ends). [ ]: non-standard residue; d: D form. Hyp = O=C(O)[C@@H]1C[C@@H](O)CN1
What was measured:
Experiment in all cases: cell-based
[1] = molecular target: T1, human α6/α3β4 nAChR (Homo sapiens, UniProt P30926+P32297+Q15825)
T1 construct: expressed in transfected cells; host or cells: Xenopus laevis oocytes (cRNA injection, 1:1 ratio)

[2] = molecular target: T2, human α6/α3β2β3 nAChR (Homo sapiens, UniProt P17787+P32297+Q05901+Q15825)
T2 construct: expressed in transfected cells; host or cells: Xenopus laevis oocytes (cRNA injection, 1:1 ratio)
T2 sequence (P17787 whole entry, looked up): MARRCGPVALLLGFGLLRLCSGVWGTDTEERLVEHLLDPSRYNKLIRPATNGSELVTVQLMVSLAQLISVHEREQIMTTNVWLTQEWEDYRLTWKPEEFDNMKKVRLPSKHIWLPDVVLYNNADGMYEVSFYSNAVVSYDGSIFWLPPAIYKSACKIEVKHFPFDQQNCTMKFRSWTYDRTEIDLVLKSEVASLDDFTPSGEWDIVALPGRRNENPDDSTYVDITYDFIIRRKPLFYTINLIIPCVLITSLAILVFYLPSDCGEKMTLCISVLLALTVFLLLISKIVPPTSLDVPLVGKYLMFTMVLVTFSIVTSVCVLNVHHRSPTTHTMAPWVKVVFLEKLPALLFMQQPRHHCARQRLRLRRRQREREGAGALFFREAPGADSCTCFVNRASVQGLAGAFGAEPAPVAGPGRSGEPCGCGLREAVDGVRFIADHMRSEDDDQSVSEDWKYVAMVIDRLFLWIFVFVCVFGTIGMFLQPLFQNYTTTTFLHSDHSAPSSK
T2 sequence (P32297 whole entry, looked up): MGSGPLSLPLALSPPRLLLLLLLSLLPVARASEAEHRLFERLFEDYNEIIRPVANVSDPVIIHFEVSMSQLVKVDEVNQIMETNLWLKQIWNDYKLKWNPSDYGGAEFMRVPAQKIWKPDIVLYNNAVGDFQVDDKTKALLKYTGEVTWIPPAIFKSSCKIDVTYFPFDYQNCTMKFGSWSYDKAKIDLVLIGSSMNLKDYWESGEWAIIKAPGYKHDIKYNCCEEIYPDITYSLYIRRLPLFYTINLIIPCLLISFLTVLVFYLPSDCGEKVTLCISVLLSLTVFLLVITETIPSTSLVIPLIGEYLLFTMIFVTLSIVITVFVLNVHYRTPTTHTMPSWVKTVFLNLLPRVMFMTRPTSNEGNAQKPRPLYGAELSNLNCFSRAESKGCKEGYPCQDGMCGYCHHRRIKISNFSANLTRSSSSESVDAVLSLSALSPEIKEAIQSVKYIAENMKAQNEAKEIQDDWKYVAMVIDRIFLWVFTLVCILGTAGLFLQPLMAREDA
T2 sequence (Q05901 whole entry, looked up): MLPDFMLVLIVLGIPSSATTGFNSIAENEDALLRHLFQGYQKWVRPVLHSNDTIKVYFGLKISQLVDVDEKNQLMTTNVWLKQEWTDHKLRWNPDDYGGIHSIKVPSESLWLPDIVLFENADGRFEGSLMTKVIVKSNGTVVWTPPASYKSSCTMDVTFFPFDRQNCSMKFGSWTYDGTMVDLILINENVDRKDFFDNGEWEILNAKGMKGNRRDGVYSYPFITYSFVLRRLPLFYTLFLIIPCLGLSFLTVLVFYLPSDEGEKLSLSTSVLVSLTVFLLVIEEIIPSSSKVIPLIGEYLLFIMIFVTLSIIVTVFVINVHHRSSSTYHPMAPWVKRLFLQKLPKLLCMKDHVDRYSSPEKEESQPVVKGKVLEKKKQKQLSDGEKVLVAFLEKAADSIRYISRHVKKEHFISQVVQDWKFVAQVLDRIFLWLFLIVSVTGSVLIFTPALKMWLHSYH
T2 sequence (Q15825 whole entry, looked up): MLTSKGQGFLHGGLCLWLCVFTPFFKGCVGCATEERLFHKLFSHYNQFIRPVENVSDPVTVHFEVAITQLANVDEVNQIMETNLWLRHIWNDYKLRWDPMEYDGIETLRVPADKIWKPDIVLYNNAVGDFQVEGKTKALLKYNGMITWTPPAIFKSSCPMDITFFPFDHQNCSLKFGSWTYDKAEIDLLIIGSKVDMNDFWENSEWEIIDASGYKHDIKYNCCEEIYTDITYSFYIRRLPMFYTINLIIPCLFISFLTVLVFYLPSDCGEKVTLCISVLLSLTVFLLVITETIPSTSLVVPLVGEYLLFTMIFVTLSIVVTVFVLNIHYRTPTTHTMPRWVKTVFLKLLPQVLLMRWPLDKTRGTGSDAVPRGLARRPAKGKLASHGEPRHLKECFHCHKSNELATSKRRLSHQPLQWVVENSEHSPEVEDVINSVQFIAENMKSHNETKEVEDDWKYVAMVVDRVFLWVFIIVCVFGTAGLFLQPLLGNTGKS

[3] = molecular target: T3, human α3β4 nAChR (Homo sapiens, UniProt P30926+P32297)
T3 construct: expressed in transfected cells; host or cells: Xenopus laevis oocytes (cRNA injection, 1:1 ratio)
T3 sequence (P32297 32-505 limits assumed): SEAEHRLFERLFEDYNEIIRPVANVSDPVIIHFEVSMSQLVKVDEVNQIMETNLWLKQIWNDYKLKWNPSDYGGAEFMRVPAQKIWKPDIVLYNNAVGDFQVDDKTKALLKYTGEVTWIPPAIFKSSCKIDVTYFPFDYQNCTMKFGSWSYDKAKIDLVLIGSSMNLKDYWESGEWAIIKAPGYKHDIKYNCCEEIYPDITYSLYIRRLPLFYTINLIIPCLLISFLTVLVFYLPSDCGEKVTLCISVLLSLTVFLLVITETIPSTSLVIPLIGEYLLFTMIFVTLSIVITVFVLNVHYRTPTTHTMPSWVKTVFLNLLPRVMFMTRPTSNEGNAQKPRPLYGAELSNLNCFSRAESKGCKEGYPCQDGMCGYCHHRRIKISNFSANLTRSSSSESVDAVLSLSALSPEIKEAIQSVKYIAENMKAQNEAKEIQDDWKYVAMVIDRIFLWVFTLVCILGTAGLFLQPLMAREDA
T3 sequence (P30926 22-498 limits assumed): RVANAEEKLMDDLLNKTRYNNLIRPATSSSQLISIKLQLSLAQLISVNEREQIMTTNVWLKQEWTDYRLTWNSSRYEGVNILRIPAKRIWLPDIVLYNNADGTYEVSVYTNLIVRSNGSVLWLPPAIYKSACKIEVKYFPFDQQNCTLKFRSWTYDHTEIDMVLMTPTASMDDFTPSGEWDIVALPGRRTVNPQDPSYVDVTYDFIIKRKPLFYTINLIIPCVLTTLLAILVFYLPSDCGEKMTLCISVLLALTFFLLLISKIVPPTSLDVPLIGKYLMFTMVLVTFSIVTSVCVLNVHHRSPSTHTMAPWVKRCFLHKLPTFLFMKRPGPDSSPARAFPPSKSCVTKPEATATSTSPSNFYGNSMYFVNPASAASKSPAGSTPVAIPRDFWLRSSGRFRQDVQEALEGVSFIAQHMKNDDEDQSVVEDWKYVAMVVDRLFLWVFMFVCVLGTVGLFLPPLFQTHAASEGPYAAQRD

T1 sequence (P30926 whole entry, looked up): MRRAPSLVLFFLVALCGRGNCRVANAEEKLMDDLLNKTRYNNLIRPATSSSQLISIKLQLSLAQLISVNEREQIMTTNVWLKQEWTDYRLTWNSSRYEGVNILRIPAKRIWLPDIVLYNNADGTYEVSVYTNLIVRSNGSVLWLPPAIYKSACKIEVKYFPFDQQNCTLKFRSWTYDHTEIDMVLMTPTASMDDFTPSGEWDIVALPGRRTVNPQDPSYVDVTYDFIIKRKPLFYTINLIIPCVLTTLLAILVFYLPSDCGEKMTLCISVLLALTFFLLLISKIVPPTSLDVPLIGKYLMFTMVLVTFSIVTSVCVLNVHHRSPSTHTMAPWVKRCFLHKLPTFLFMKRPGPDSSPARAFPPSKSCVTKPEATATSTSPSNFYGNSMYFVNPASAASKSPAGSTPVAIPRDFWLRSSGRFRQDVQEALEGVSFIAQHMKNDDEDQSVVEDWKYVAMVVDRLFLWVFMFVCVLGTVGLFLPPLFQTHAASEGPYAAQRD
T1 sequence (P32297 whole entry, looked up): as the sequence (P32297 whole entry, looked up) above
T1 sequence (Q15825 whole entry, looked up): as the sequence (Q15825 whole entry, looked up) above

Compound | IC50 [1] [nM] | fold selectivity, α6/α3β4 over α6/α3β2β3 (IC50 ratio) [1] [fold] | IC50 [2] [nM] | IC50 [3] [nM]
CC(C)C[C@@H]1NC(=O)[C@H](C(C)C)NC(=O)[C@H](C)NC(=O)[C@@H]2CSSC[C@H](NC(=O)CN)C(=O)N[C@@H](CSSC[C@@H](C(N)=O)NC(=O)[C@H](Cc3ccc(O)cc3)NC1=O)C(=O)N[C@@H](CO)C(=O)N[C@@H](C)C(=O)N1C[C@H](O)C[C@H]1C(=O)N1CCC[C@H]1C(=O)N2 [BuIA[T5A,P6O]] (H-GCCSA[Hyp]PCAVLYC-NH2; disulfide 2-8, 3-13) | 11.1 | > 900 | > 10000 | 
CC(C)C[C@@H]1NC(=O)[C@H](C)NC(=O)[C@@H]2CSSC[C@H](NC(=O)CN)C(=O)N[C@@H](CSSC[C@@H](C(N)=O)NC(=O)[C@H](C)NC(=O)[C@H](CC(N)=O)NC(=O)[C@H](CO)NC(=O)[C@H](Cc3cnc[nH]3)NC(=O)[C@H](CCC(=O)O)NC1=O)C(=O)N[C@@H](CO)C(=O)N[C@@H](CC(N)=O)C(=O)N1CCC[C@H]1C(=O)N[C@@H](C(C)C)C(=O)N2 [MII[H9A,L15A]] (H-GCCSNPVCALEHSNAC-NH2; disulfide 2-8, 3-16) | 13.3 |  |  | 1400
